Earlier results on 2 compounds are cited in patent publication US8524293B1, “Method for producing a red grape tea-like composition” (priority 2009, dated 2013).

One data set deals with flu. The conditions noted are these: laboratory animals.
Data set [1] deals with intestinal tumor formation. The following applies: cancerous mouse.

In the case of `O=c1c(O)c(-c2ccc(O)c(O)c2)oc2cc(O)cc(O)c12` [quercetin], the risk of flu result in the data set with flu is “reduce the risk of flu”.

As for catechin, in data set [1], the “focal adhesion kinase activation” value is recorded as “suppressed focal adhesion kinase activation” and the intestinal tumor formation result was “inhibited intestinal tumor formation”.
